Results filed as inconclusive are left out.
System: BDF1 mice, s.c. Lewis lung carcinoma, T/C %
Test: NCI In Vivo Anticancer Drug Screen. Data for tumor model Lewis Lung Carcinoma (subcutaneous) in B6D2F1 (BDF1) mice
In short: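 Readout: survival or tumor size, expressed as treated (T) over vehicle control (C). Transplantable tumor implanted in mice; compound given to the treated group.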

[1] = endpoint: median survival time, dose: 12.5 mg/kg/injection, schedule: Q01DX009 (ip), vehicle: Klucel (hydroxypropylcellulose) (HPC), higher = longer survival
[2] = endpoint: median survival time, dose: 25.0 mg/kg/injection, schedule: Q01DX009 (ip), vehicle: Klucel (hydroxypropylcellulose) (HPC), higher = longer survival

**Q.** For `CC(C)=CCC/C(C)=C/CNCCc1c[nH]c2ccccc12`, which T/C (endpoint: median survival time, dose: 6.25 mg/kg/injection, schedule: Q01DX009 (ip), vehicle: Klucel (hydroxypropylcellulose) (HPC), higher = longer survival) is on record?
**A.** Its T/C is 100 % of control.

**Q.** What about the T/C [1] of the same compound?
**A.** The T/C was 101 % of control.

**Q.** And the T/C [2]?
**A.** Its T/C is 97 % of control.

**Q.** How did the T/C [1] turn out when `CCN(CC)CCCC(C)Nc1c2ccc(Cl)cc2nc2cc(Cl)ccc12` (stereo not drawn) was run?
**A.** The T/C was 105 % of control.

**Q.** What about the T/C [2] of the same compound?
**A.** Its T/C is 97 % of control.

**Q.** What about the T/C (endpoint: median survival time, dose: 50.0 mg/kg/injection, schedule: Q01DX009 (ip), vehicle: Klucel (hydroxypropylcellulose) (HPC), higher = longer survival) of the same compound?
**A.** Its T/C is 105 % of control.

**Q.** How did the T/C (endpoint: median survival time, dose: 3.8 micrograms/kg/injection, schedule: Q01DX009 (ip), vehicle: saline, higher = longer survival) turn out when `C=C(C)C12CC(COC(=O)c3ccccc3)C34OC5(OC1C3C1OC1(CO)C(O)C1(O)C(OC(=O)c3ccccc3)C(C)C(C(C)CCCCCCC5O)C14)O2` (stereo not drawn) was run?
**A.** Its T/C is 107 % of control.

**Q.** And the T/C (endpoint: median survival time, dose: 7.5 micrograms/kg/injection, schedule: Q01DX009 (ip), vehicle: saline, higher = longer survival)?
**A.** Its T/C is 100 % of control.

**Q.** For `C1CC[N-]CC1.C1CC[N-]CC1.C1CC[N-]CC1.C1CC[N-]CC1.[Cl][Co][Cl]`, which T/C (endpoint: mean tumor weight, dose: 15.0 mg/kg/injection, schedule: Q01DX011 (ip), vehicle: other, higher = larger tumour) is on record?
**A.** Its T/C is 63 % of control.

**Q.** What about the T/C (endpoint: mean tumor weight, dose: 30.0 mg/kg/injection, schedule: Q01DX011 (ip), vehicle: other, higher = larger tumour) of the same compound?
**A.** Its T/C is 68 % of control.

**Q.** And the T/C (endpoint: mean tumor weight, dose: 60.0 mg/kg/injection, schedule: Q01DX011 (ip), vehicle: other, higher = larger tumour)?
**A.** Its T/C is 56 % of control.

**Q.** And the T/C (endpoint: median survival time, dose: 2.5 mg/kg/injection, schedule: Q01DX009 (ip), vehicle: saline, higher = longer survival)?
**A.** The T/C was 94 % of control.

**Q.** What about the T/C (endpoint: median survival time, dose: 10.0 mg/kg/injection, schedule: Q01DX009 (ip), vehicle: saline, higher = longer survival) of the same compound?
**A.** The T/C was 105 % of control.

**Q.** And the T/C (endpoint: median survival time, dose: 20.0 mg/kg/injection, schedule: Q01DX009 (ip), vehicle: saline, higher = longer survival)?
**A.** The T/C was 95 % of control.

**Q.** And the T/C (endpoint: median survival time, dose: 40.0 mg/kg/injection, schedule: Q01DX009 (ip), vehicle: saline, higher = longer survival)?
**A.** Its T/C is 93 % of control.

**Q.** Which results are given for `C/C=C(\C)C(=O)N/N=C\c1cc(Cl)cc(Cl)c1O`?
**A.** T/C (endpoint: median survival time, dose: 12.5 mg/kg/injection, schedule: Q01DX009 (ip), vehicle: olive oil, sesame oil, peanut oil, higher = longer survival): 102 % of control; T/C (endpoint: median survival time, dose: 25.0 mg/kg/injection, schedule: Q01DX009 (ip), vehicle: olive oil, sesame oil, peanut oil, higher = longer survival): 112 % of control; T/C (endpoint: median survival time, dose: 50.0 mg/kg/injection, schedule: Q01DX009 (ip), vehicle: olive oil, sesame oil, peanut oil, higher = longer survival): 90 % of control; T/C (endpoint: median survival time, dose: 200.0 mg/kg/injection, schedule: Q01DX009 (ip), vehicle: olive oil, sesame oil, peanut oil, higher = longer survival): 86 % of control

**Q.** `O=C(O)CCC(=O)Nc1nccs1` was tested. Which T/C (endpoint: mean tumor weight, dose: 50.0 mg/kg/injection, schedule: Q01DX011 (ip), vehicle: carboxymethylcellulose (CMC), higher = larger tumour) did it give?
**A.** The T/C was 77 % of control.

**Q.** What about the T/C (endpoint: mean tumor weight, dose: 100.0 mg/kg/injection, schedule: Q01DX011 (ip), vehicle: carboxymethylcellulose (CMC), higher = larger tumour) of the same compound?
**A.** The T/C was 83 % of control.

**Q.** And the T/C (endpoint: mean tumor weight, dose: 200.0 mg/kg/injection, schedule: Q01DX011 (ip), vehicle: carboxymethylcellulose (CMC), higher = larger tumour)?
**A.** Its T/C is 68 % of control.

**Q.** And the T/C (endpoint: mean tumor weight, dose: 400.0 mg/kg/injection, schedule: Q01DX011 (ip), vehicle: carboxymethylcellulose (CMC), higher = larger tumour)?
**A.** The T/C was 101 % of control.

**Q.** With `O=c1cc(-c2ccccc2)oc2ccc(O)cc12` as the compound, how does the T/C (endpoint: mean tumor weight, dose: 3.13 mg/kg/injection, schedule: Q01DX011 (ip), vehicle: saline, higher = larger tumour) read?
**A.** The T/C was 109 % of control.

**Q.** And the T/C (endpoint: mean tumor weight, dose: 6.25 mg/kg/injection, schedule: Q01DX011 (ip), vehicle: saline, higher = larger tumour)?
**A.** The T/C was 68 % of control.

**Q.** And the T/C (endpoint: mean tumor weight, dose: 25.0 mg/kg/injection, schedule: Q01DX010 (ip), vehicle: saline, higher = larger tumour)?
**A.** The T/C was 77 % of control.

**Q.** What about the T/C (endpoint: mean tumor weight, dose: 25.0 mg/kg/injection, schedule: Q01DX011 (ip), vehicle: saline, higher = larger tumour) of the same compound?
**A.** Its T/C is 119 % of control.

**Q.** And the T/C (endpoint: mean tumor weight, dose: 50.0 mg/kg/injection, schedule: Q01DX010 (ip), vehicle: saline, higher = larger tumour)?
**A.** Its T/C is 101 % of control.

**Q.** And the T/C (endpoint: mean tumor weight, dose: 100.0 mg/kg/injection, schedule: Q01DX010 (ip), vehicle: saline, higher = larger tumour)?
**A.** The T/C was 86 % of control.

**Q.** And the T/C (endpoint: mean tumor weight, dose: 200.0 mg/kg/injection, schedule: Q01DX010 (ip), vehicle: saline, higher = larger tumour)?
**A.** Its T/C is 97 % of control.

**Q.** `Nc1c(Cl)c(Cl)nc(C(=O)O)c1Cl` was tested. Which T/C (endpoint: median survival time, dose: 25.0 mg/kg/injection, schedule: Q02DX009 (ip), vehicle: Klucel (hydroxypropylcellulose) (HPC), higher = longer survival) did it give?
**A.** Its T/C is 109 % of control.

**Q.** What about the T/C (endpoint: median survival time, dose: 25.0 mg/kg/injection, schedule: Q02DX009 (ip), vehicle: distilled water + Tween-80, higher = longer survival) of the same compound?
**A.** Its T/C is 121 % of control.

**Q.** And the T/C (endpoint: median survival time, dose: 50.0 mg/kg/injection, schedule: Q02DX009 (ip), vehicle: Klucel (hydroxypropylcellulose) (HPC), higher = longer survival)?
**A.** The T/C was 98 % of control.

**Q.** And the T/C (endpoint: median survival time, dose: 50.0 mg/kg/injection, schedule: Q02DX009 (ip), vehicle: distilled water + Tween-80, higher = longer survival)?
**A.** Its T/C is 104 % of control.

**Q.** What about the T/C (endpoint: median survival time, dose: 100.0 mg/kg/injection, schedule: Q02DX009 (ip), vehicle: Klucel (hydroxypropylcellulose) (HPC), higher = longer survival) of the same compound?
**A.** The T/C was 91 % of control.

**Q.** And the T/C (endpoint: median survival time, dose: 100.0 mg/kg/injection, schedule: Q02DX009 (ip), vehicle: distilled water + Tween-80, higher = longer survival)?
**A.** Its T/C is 88 % of control.

**Q.** And the T/C (endpoint: median survival time, dose: 200.0 mg/kg/injection, schedule: Q02DX009 (ip), vehicle: Klucel (hydroxypropylcellulose) (HPC), higher = longer survival)?
**A.** Its T/C is 92 % of control.

**Q.** And the T/C (endpoint: median survival time, dose: 200.0 mg/kg/injection, schedule: Q02DX009 (ip), vehicle: distilled water + Tween-80, higher = longer survival)?
**A.** The T/C was 100 % of control.

— PubChem BioAssay AID270 (DTP/NCI, 2004)
